Measurements: patent US20250230193A1, “CYCLIC COMPOUND HAVING SELECTIVE KRAS INHIBITORY EFFECT ON HRAS AND NRAS” (CHUGAI SEIYAKU KABUSHIKI KAISHA, priority 2022, published 2025)

Columns and labels:
[1] = target: GDP-bound NRAS wild-type protein (Homo sapiens, UniProt P01111); assay: Binding to NRAS by surface plasmon resonance (SPR), Single Cycle Kinetics; settings: SPR, GDP-bound NRAS wild-type vs GDP-bound KRAS wild-type
[2] = target: GDP-bound HRAS wild-type protein (Homo sapiens, UniProt P01112); assay: Binding to HRAS by surface plasmon resonance (SPR), Single Cycle Kinetics; settings: SPR, GDP-bound HRAS wild-type vs GDP-bound KRAS wild-type
GDP-bound HRAS wild-type protein, sequence (P01112 whole entry): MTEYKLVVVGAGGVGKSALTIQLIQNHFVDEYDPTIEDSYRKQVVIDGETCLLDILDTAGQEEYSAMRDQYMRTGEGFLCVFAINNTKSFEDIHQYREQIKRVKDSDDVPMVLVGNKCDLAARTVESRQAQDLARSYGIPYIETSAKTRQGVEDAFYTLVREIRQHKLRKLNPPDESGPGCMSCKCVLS

GDP-bound NRAS wild-type protein, sequence (P01111 whole entry): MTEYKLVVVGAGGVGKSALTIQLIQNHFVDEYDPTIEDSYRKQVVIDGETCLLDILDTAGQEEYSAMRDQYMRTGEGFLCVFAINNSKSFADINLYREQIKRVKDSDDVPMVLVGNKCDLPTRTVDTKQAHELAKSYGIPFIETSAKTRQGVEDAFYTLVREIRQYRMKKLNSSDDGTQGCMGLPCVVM

SMILES | NRAS/KRAS (ratio of KD value with respect to NRAS to KD value with respect to KRAS) [1] | HRAS/KRAS (ratio of KD value with respect to HRAS to KD value with respect to KRAS) [2]
C#CC[C@H]1C(=O)N[C@@H]([C@@H](C)CC)C(=O)N(C)CC(=O)N(C)[C@H]2C/C=C\CCN(C2=O)[C@@H](Cc2ccc(C(F)(F)F)cc2)C(=O)N(C)CC(=O)N[C@@H](CCc2ccc(C(F)(F)F)c(OC)c2)C(=O)N2C[C@@H](C)C[C@H]2C(=O)NC2(CCC2)C(=O)N(C)[C@@H](C2CCCC2)C(=O)N(C)[C@H](C(=O)N(C)CCC)CC(=O)N1C [PP2063] | AA (a compound having 20 or more is denoted as AA) | A (a compound having 10 or more and less than 20 is denoted as A)
CCC[C@H]1C(=O)N[C@@H]([C@@H](C)CC)C(=O)N(C)CC(=O)N(C)[C@H]2C/C=C\CCN(C2=O)[C@@H](Cc2ccc(C)cc2)C(=O)N(C)CC(=O)N[C@@H](CCc2cc(F)c(C(F)(F)F)c(F)c2)C(=O)N2C[C@H](OCC)C[C@H]2C(=O)NC2(CC(C)(C)C2)C(=O)N(C)[C@@H](C(CC)CC)C(=O)N(C)[C@H](C(=O)N(C)C)CC(=O)N1C [PP2064] | A (a compound having 10 or more and less than 20 is denoted as A) | A (a compound having 10 or more and less than 20 is denoted as A)
CC[C@H](C)[C@@H]1NC(=O)[C@H](C(C)C)N(C)C(=O)C[C@@H](C(=O)N(C)CC)N(C)C(=O)[C@H](C2CCCC2)N(C)C(=O)C2(CCC2)NC(=O)[C@@H]2C[C@H](C)CN2C(=O)[C@H](CCc2ccc(C(F)(F)F)c(OC)c2)NC(=O)CN(C)C(=O)[C@H](Cc2ccc(C(F)(F)F)cc2)N2CC/C=C\C[C@@H](C2=O)N(C)C(=O)CN(C)C1=O [PP2065] | A (a compound having 10 or more and less than 20 is denoted as A) | B (a compound having 3 or more and less than 10 is denoted as B)
CCO[C@@H]1C[C@H]2C(=O)NC3(CC(C)(C)C3)C(=O)N(C)[C@@H](C(CC)CC)C(=O)N(C)[C@H](C(=O)N(C)C)CC(=O)N(C)[C@@H](CC)C(=O)N[C@@H]([C@@H](C)CC)C(=O)N(C)CC(=O)N(C)[C@H]3C/C=C\CCN(C3=O)[C@@H](Cc3ccc(C(F)(F)F)cc3)C(=O)N(C)CC(=O)N[C@@H](CCc3ccc(C(F)(F)F)c(OC)c3)C(=O)N2C1 [PP2066] | A (a compound having 10 or more and less than 20 is denoted as A) | B (a compound having 3 or more and less than 10 is denoted as B)
CCCN(C)C(=O)[C@@H]1CC(=O)N(C)[C@@H](C(C)C)C(=O)N[C@@H]([C@@H](C)CC)C(=O)N(C)CC(=O)N(C)[C@H]2C/C=C\CCN(C2=O)[C@@H](Cc2ccc(C(F)(F)F)cc2)C(=O)N(C)CC(=O)N[C@@H](CCc2ccc(C(F)(F)F)c(OC)c2)C(=O)N2C[C@@H](C)C[C@H]2C(=O)NC2(CCC2)C(=O)N(C)[C@@H](C2CCCC2)C(=O)N1C [PP2067] | AA (a compound having 20 or more is denoted as AA) | A (a compound having 10 or more and less than 20 is denoted as A)
CCC[C@H]1C(=O)N[C@@H]([C@@H](C)CC)C(=O)N(C)CC(=O)N(C)[C@H]2C/C=C\CCN(C2=O)[C@@H](Cc2ccc(C)cc2)C(=O)N(C)CC(=O)N[C@@H](CCc2ccc(C(F)(F)F)c(OC)c2)C(=O)N2C[C@H](OCC)C[C@H]2C(=O)NC2(CC(C)(C)C2)C(=O)N(C)[C@@H](C(CC)CC)C(=O)N(C)[C@H](C(=O)N(C)C)CC(=O)N1C [PP2068] | A (a compound having 10 or more and less than 20 is denoted as A) | B (a compound having 3 or more and less than 10 is denoted as B)
